Legend:
myelin-ECs (BMECs) = assay: Myelin degradation into neutral lipids (Oil Red O staining) in myelin-BMECs after autophagy drug treatment; type: cell-based, mouse; settings: 3-MA 2 mM 48 hr (1 mM elsewhere in the source), chloroquine 10 μM 24 hr, rapamycin 1 μM 24 hr
Procedure: Oil Red O (ORO) staining. ORO staining was performed to detect intracellular neutral lipid accumulation in injured spinal cords and cultured BMECs. Spinal frozen sections or fixed cells were dehydrated in 100% propylene glycol for 5 min, then stained with 0.5% ORO solution at 60° C. for 8 min. The samples were then processed with 85% propylene glycol for 5 min followed by distilled water rinsing for 3 times. Stained samples were imaged with a confocal laser scanning microscope. Starvation and drug treatments for autophagy assays. BMECs cultured with 5% FBS containing medium were used as negative control for autophagy. The positive control for autophagy induction, BMECs, were starved with Hanks Balanced Salt Solution for 6 hr to induce autophagy. 10 μM chloroquine, an inhibitor of lysosomes, or 1 μM of rapamycin, an inducer of autophagy, was added to BMECs cultures for 24 hr after myelin debris treatment. 2 mM of 3-MA, a PI3K inhibitor of autophagy was cultured with ECs for 48 hr, starting from the last 24 hr treatment of myelin debris to the subsequent 24 hr of medium wash. Cells grown on coverslips were fixed and stained with Oil Red 0 for detection of myelin-derived lipids as above described.

BMECs [1] = settings: 1 mM 3-MA (48 hr), 10 μM chloroquine (24 hr)
Procedure: Propidium iodide (PI) staining assay for cell death analysis. Wild-type BMECs or Atg5 knockout BMECs were cultured with DMEM medium containing 5% FBS in 24-well plate. To test the toxicity of different autophagy-related drugs, BMECs were treated with or without myelin debris and were treated with or without 1 mM 3-MA (48 hr), 10 μM chloroquine (24 hr), or 1 μM rapamycin (24 hr). After reaching 70% confluence, cells were washed with 1×PBS and fixed with 4% PFA. The fixed cells were stained with propidium iodide and Hoechst, followed by imaging and quantification of PI positive nucleus using Nikon Element software.

BMECs [2] = assay: In vitro endothelial-to-mesenchymal transition (endoMT) assays; type: cell-based, mouse; settings: TGF-β1 10 ng/ml
Procedure: In vitro endothelial-to-mesenchymal transition (endoMT) assays. 5×10^3 BMECs were seeded in 24-well plate for endoMT induction. As positive control, recombinant TGF-β1 protein ([…]) was added to BMECs for 72 hr to induce in vitro endoMT. Cells were considered spindle-shaped when the diameter at their longest axis to be 1.5-fold greater than the average diameter of untreated cobblestone BMECs. Myelin debris (1 mg/ml) was added to BMECs for 1, 3, 5, 7, and 10 days and culture medium was changed every 3 days, followed by morphological observation of spindle-shape cells. α-SMA staining was used to confirm the mesenchymal transition. Percentage of spindle-shaped cells and percentage of a-SMA^+/CD31^+ were quantified. To examine the role of TGF-β in myelin-induced endoMT, pan TGF-β neutralizing antibody (20 μg/ml) was added to BMECs together with myelin debris for 10 days and re-supplemented every 3 days.

[3] = q-PCR, immunostaining and western blot

| Compound | myelin degradation into neutral lipids (ORO+ lipids) in myelin-ECs (myelin-ECs (BMECs)) | cell toxicity (cell death by PI staining) (BMECs [1]) | BMEC morphology (induction of endoMT) (BMECs [2]; 3 days) | CD31 expression in BMECs (BMECs [2]; [3]) | a-SMA expression in BMECs (BMECs [2]; [3]) |
| --- | --- | --- | --- | --- | --- |
| Cn1cnc(N)c2ncnc1-2 [3-MA, 3-methyladenine] | significantly inhibited myelin degradation into neutral lipids | – | – | – | – |
| CCN(CC)CCCC(C)Nc1ccnc2cc(Cl)ccc12 (stereo not drawn) [chloroquine] | significantly inhibited myelin degradation into neutral lipids | without causing apparent cell toxicity | – | – | – |
| TGF-β1: Recombinant mouse TGF-β1 (#5231), positive control, strong inducer of endoMT | – | – | elongated and exhibited the same spindle-like morphology as fibroblasts | markedly downregulated CD31 expression | strongly induced a-SMA expression |

From patent publication US20200165608A1, “INHIBITION OF VASCULAR ENDOTHELIAL CELL-MEDIATED PHAGOCYTIC PROCESSES FOR TREATMENT OF DEMYELINATING CONDITIONS” (FLORIDA STATE UNIVERSITY RESEARCH FOUNDATION, INC., priority 2018, published 2020)
